Assay [1] concerns the target T1, human muscarinic M1 receptor (Homo sapiens, UniProt P11229).
T1 sequence (P11229 1-460): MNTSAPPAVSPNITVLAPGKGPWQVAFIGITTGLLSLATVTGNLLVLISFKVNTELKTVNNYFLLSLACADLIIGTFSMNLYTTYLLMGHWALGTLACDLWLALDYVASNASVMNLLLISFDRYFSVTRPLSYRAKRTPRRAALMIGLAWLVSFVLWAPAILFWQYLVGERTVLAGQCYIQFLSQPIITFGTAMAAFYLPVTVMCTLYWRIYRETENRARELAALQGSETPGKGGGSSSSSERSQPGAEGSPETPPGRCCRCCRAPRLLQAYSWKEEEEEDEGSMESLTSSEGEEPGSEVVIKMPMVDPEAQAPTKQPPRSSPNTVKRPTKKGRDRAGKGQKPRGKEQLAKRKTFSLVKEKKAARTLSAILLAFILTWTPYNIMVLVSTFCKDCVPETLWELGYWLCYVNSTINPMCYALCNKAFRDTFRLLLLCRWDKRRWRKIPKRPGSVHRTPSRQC
Put plainly: Alphascreen Surefire phospho-ERK1/2 functional assay, M1. The assay is classed as cell-based. To be noted: for % Emax cf. ACh, M1 / Emax: Emax relative to ACh; for EC50: phospho-ERK1/2; for Emax: CHO, read-out: % Emax cf. ACh, M1, CHO cells stably expressing human M1. The protocol: (§1) Functional assays were performed using the Alphascreen Surefire phospho-ERK1/2 assay (Crouch & Osmond, Comb. Chem. High Throughput Screen, 2008). ERK1/2 phosphorylation is a downstream consequence of both Gq/11 and Gi/o protein coupled receptor activation, making it highly suitable for the assessment of M1, M3 (Gq/11 coupled) and M2, M4 receptors (Gi/o coupled), rather than using different assay formats for different receptor subtypes. CHO cells stably expressing the human muscarinic M1, M2, M3 or M4 receptor were plated (25K/well) onto 96-well tissue culture plates in MEM-alpha+10% dialysed FBS. Once adhered, cells were serum-starved overnight. Agonist stimulation was performed by the addition of 5 μL agonist to the cells for 5 min (37° C.). Media was removed and 50 μL of lysis buffer added. After 15 min, a 4 μL sample was transferred to 384-well plate and 7 μL of detection mixture added.
For the vast majority of examples at least two diastereomers exist and these have been separated, unless otherwise stated, using the techniques of reversed phase HPLC, chiral HPLC or chiral SFC. Isomer assignment (Isomer 1, Isomer 2, etc.) is based on the retention time of the compound using the separation technique that was performed in the final purification step. By implication, this could be reversed phase HPLC, chiral HPLC or chiral SFC retention time, and this will vary from compound to compound.
Background: Bead proximity is the source of the signal in Alpha formats.

For assay [2], the target named is T2, human muscarinic M4 receptor (Homo sapiens, UniProt P08173).
T2 sequence (P08173 1-479): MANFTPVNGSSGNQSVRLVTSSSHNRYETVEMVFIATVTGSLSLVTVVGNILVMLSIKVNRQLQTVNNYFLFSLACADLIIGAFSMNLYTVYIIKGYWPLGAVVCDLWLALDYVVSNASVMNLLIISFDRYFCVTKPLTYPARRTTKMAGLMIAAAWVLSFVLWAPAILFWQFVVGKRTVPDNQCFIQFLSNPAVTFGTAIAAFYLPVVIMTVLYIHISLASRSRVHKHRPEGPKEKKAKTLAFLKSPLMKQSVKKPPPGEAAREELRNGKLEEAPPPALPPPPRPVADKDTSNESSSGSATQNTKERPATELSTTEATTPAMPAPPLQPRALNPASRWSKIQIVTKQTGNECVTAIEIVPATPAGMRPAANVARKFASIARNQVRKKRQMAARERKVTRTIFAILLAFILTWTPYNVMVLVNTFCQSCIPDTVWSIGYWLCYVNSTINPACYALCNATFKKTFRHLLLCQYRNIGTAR
Put plainly: Alphascreen Surefire phospho-ERK1/2 functional assay, M4. The assay is classed as cell-based. To be noted: for Emax: CHO, read-out: % Emax cf. ACh, M4, CHO cells stably expressing human M4; for Emax / % Emax cf. ACh, M4: Emax relative to ACh; for EC50: phospho-ERK1/2. On the procedure: as §1, with “ERK1/2” for “Functional assays were performed using the Alphascreen Surefire phospho-ERK1/2 assay (Crouch & Osmond, Comb. Chem. High Throughput Screen, 2008). ERK1/2”
Isomer assignment (Isomer 1, Isomer 2, etc.) is based on the retention time of the compound using the separation technique that was performed in the final purification step. By implication, this could be reversed phase HPLC, chiral HPLC or chiral SFC retention time, and this will vary from compound to compound.

Setting [3] is: pEC50 M1, CHO cells stably expressing human M1.
Where [4] appears, read: pEC50 M4, CHO cells stably expressing human M4.
Where [5] appears, read: CHO cells stably expressing human M1, read-out: pEC50 M1 (converted).
The mark [6] stands for this setting: CHO cells stably expressing human M4, read-out: pEC50 M4 (converted).
The mark [7] stands for this setting: CHO cells stably expressing human M1.
The mark [8] stands for this setting: CHO cells stably expressing human M4.

Read-outs that look alike come from different tables or passages of the source.

What is called Emax is the greatest response seen or fitted, relative to the assay's reference. As for `CCOC(=O)N1C2COCC1CC(N1CCC3(CC1)CNC(=O)C3)C2` (single isomer, unassigned) [Example 5-2 Isomer 1, Ethyl 7-(3-oxo-2,8-diazaspiro[4.5]dec-8-yl)-3-oxa-9-azabicyclo[3.3.1]nonane-9-carboxylate], the “% Emax cf. ACh, M1” value in assay [1] (CHO cells stably expressing human M1, listed as 5-2 Isomer 1) came out at 82%. In addition, the EC50 in assay [1] (setting [3]) was 316 nM; in assay [2] (setting [4]) it was 302 nM. For the same molecule, the Emax in assay [2] was 36%.

`CCOC(=O)N1C2COCC1CC(N1CCC(C#N)(c3ccccn3)CC1)C2` (single isomer, unassigned) [Example 3-1 Isomer 1, Ethyl 7-[4-cyano-4-(pyridin-2-yl)piperidin-1-yl]-3-oxa-9-azabicyclo[3.3.1]nonane-9-carboxylate]: the values for the EC50 in assay [1] (setting [5]) and in assay [2] (setting [6]) were 1380 nM and 129 nM, respectively. For the same molecule, the results for the Emax in assay [1] and in assay [2] were 97% and 94%, respectively.

For `COC(=O)N1C2COCC1CC(N1CCC(N(CC3(C)CCC3)C(C)=O)CC1)C2` (single isomer, unassigned) [Example 8-1 Isomer 2, Methyl 7-(4-(N-((1-methylcyclobutyl)methyl)acetamido)piperidin-1-yl)-3-oxa-9-azabicyclo[3.3.1]nonane-9-carboxylate], the “% Emax cf. ACh, M1” value in assay [1] (CHO cells stably expressing human M1, listed as 8-1 Isomer 2) is reported as 86%. The EC50 in assay [1] (setting [3]) was 234 nM; in assay [2] (setting [4]), 575 nM. For the same molecule, in assay [2] (CHO cells stably expressing human M4, listed as 8-1 Isomer 2), the “% Emax cf. ACh, M4” value came out at 47%.

With `CCOC(=O)N1C2COCC1CC(N1CCC(N(CC(C)(C)C)C(C)=O)CC1)C2` (single isomer, unassigned) [Example 6-2 Isomer 1, Ethyl 7-{4-[acetyl(2,2-dimethylpropyl)amino]piperidin-1-yl}-3-oxa-9-azabicyclo[3.3.1]nonane-9-carboxylate], the EC50 in assay [1] (setting [5]) is 617 nM; in assay [2] (setting [6]), 1050 nM. Moreover, the Emax worked out at 71% in assay [1] and 45% in assay [2].

Consider `CCOC(=O)N1C2COCC1CC(N1CCC(C(=O)N3CCCCCC3)CC1)C2` (single isomer, unassigned) [Example 7-4 Isomer 1, Ethyl 7-[4-(azepan-1-ylcarbonyl)piperidin-1-yl]-3-oxa-9-azabicyclo[3.3.1]nonane-9-carboxylate], for which the figures for the EC50 in assay [1] (setting [5]) and in assay [2] (setting [6]) were 550 nM and greater than 20000 nM, respectively. The values for the Emax in assay [1] and in assay [2] were 85% and 65%, respectively.

As to `CCOC(=O)N1C2COCC1CC(N1CCC(C(=O)NCC(C)C)CC1)C2` (single isomer, unassigned) [Example 7-2 Isomer 1, Ethyl 7-{4-[(2-methylpropyl)carbamoyl]piperidin-1-yl}-3-oxa-9-azabicyclo[3.3.1]nonane-9-carboxylate], the Emax in assay [1] was determined as 96%; in assay [2], 72%. In addition, the EC50 is 79.4 nM in assay [1] (setting [3]) and 457 nM in assay [2] (setting [4]).

With `COC(=O)N1C2COCC1CC(N1CCC(N(CC3(C)CCC3)C(C)=O)CC1)C2` (single isomer, unassigned) [Example 8-1 Isomer 1, Methyl 7-(4-(N-((1-methylcyclobutyl)methyl)acetamido)piperidin-1-yl)-3-oxa-9-azabicyclo[3.3.1]nonane-9-carboxylate], the “% Emax cf. ACh, M1” value in assay [1] (CHO cells stably expressing human M1, listed as 8-1 Isomer 1) turned out to be 123%. Besides, the EC50 in assay [1] (setting [3]) is 85.1 nM; in assay [2] (setting [4]), 155 nM. For the same molecule, the “% Emax cf. ACh, M4” value in assay [2] (CHO cells stably expressing human M4, listed as 8-1 Isomer 1) was 77%.

Take `COC(=O)N1C2COCC1CC(N1CCC(N(Cc3ccccc3)C(C)=O)CC1)C2` (single isomer, unassigned) [Example 8-2 Isomer 2, Methyl 7-(4-(N-benzylacetamido)piperidin-1-yl)-3-oxa-9-azabicyclo[3.3.1]nonane-9-carboxylate]: the “% Emax cf. ACh, M1” value in assay [1] (CHO cells stably expressing human M1, listed as 8-2 Isomer 2) came out at 60%. The figures for the EC50 in assay [1] (setting [3]) and in assay [2] (setting [4]) were 603 nM and greater than 20000 nM, respectively. Further, in assay [2] (CHO cells stably expressing human M4, listed as 8-2 Isomer 2), the “% Emax cf. ACh, M4” value amounted to 27%.

`CCOC(=O)N1C2COCC1CC(N1CCC(c3cccc(OC)n3)CC1)C2` (single isomer, unassigned) [Example 2-1 Isomer 2, Ethyl 7-[4-(6-methoxypyridin-2-yl)piperidin-1-yl]-3-oxa-9-azabicyclo[3.3.1]nonane-9-carboxylate]: the “% Emax cf. ACh, M1” value in assay [1] (setting [7]) turned out to be 40%. Moreover, the EC50 in assay [1] (setting [5]) was 158 nM. For the same molecule, the “% Emax cf. ACh, M4” value in assay [2] (setting [8]) is given as 20%.

Regarding `CCOC(=O)N1C2COCC1CC(N1CCC3(CC1)CNC(=O)O3)C2` (single isomer, unassigned) [Example 5-3 Isomer 1, Ethyl 7-(2-oxo-1-oxa-3,8-diazaspiro[4.5]dec-8-yl)-3-oxa-9-azabicyclo[3.3.1]nonane-9-carboxylate], the values for the EC50 in assay [1] (setting [5]) and in assay [2] (setting [6]) were 1450 nM and 832 nM, respectively. The Emax in assay [1] amounted to 75%; in assay [2] it was 33%.

`CCOC(=O)N1C2COCC1CC(N1CCC(c3cccc(OC)n3)CC1)C2` (single isomer, unassigned) [Example 2-1 Isomer 1, Ethyl 7-[4-(6-methoxypyridin-2-yl)piperidin-1-yl]-3-oxa-9-azabicyclo[3.3.1]nonane-9-carboxylate]: the EC50 in assay [1] (setting [5]) was 251 nM; in assay [2] (setting [6]), greater than 20000 nM. Further, the Emax was 44% in assay [1] and 17% in assay [2].

In the case of `COC(=O)N1C2COCC1CC(N1CCC(N(Cc3ccccc3)C(C)=O)CC1)C2` (single isomer, unassigned) [Example 8-2 Isomer 1, Methyl 7-(4-(N-benzylacetamido)piperidin-1-yl)-3-oxa-9-azabicyclo[3.3.1]nonane-9-carboxylate], in assay [1] (CHO cells stably expressing human M1, listed as 8-2 Isomer 1), the “% Emax cf. ACh, M1” value was 99%. For the same molecule, the EC50 in assay [1] (setting [3]) was 79.4 nM; in assay [2] (setting [4]), 661 nM. Further, in assay [2] (CHO cells stably expressing human M4, listed as 8-2 Isomer 1), the “% Emax cf. ACh, M4” value turned out to be 54%.

Take `CCOC(=O)N1C2COCC1CC(N1CCC(C#N)(c3ccccn3)CC1)C2` (single isomer, unassigned) [Example 3-1 Isomer 2, Ethyl 7-[4-cyano-4-(pyridin-2-yl)piperidin-1-yl]-3-oxa-9-azabicyclo[3.3.1]nonane-9-carboxylate]: in assay [1] (setting [7]), the “% Emax cf. ACh, M1” value worked out at 79%. Besides, the “% Emax cf. ACh, M4” value in assay [2] (setting [8]) is 78%. In addition, the EC50 in assay [2] (setting [6]) is 309 nM.

For the origin of these results see patent publication US10787447B2, “Pharmaceutical compounds” (Heptares Therapeutics Limited, priority 2018, dated 2020).
